Test results as given in US3956291A, “7-Thioacetamido cephalosporanic acid derivatives” (American Home Products Corporation, priority 1974, dated 1976).
≈ marks a conversion by molar mass, not a printed value.

How the values were obtained:
Test in all cases: agar serial dilution test, minimum inhibitory concentration
Type in all cases: cell-based
escherichia intermedia = details: Citrobacter intermedius; ES IN strain 65-1
Text: (§1) The compounds of this invention are useful for the treatment of bacterial infections amenable to treatment by cephalosporins. […] In accordance with the results obtained with the antibacterial compounds of this invention, their usefulness is established in the fields of comparative pharmacology and microbiology for the purpose of inhibiting the growth of undesirable bacterial colonies.
(§2) The nmr spectra described in the following examples pertains to the spectra obtained upon exchanging acidic hydrogens with deuterium and are described in ppm (δ). The small amount of water and/or solvent carried into the products is readily removed by gently heating the material under vacuum. […]

pseudomones aeruginosa = details: PS AE strain 10145
Text: as §1, §2

herellea species = details: HE SP strain 9955
Text: as §1, §2

proteus vulgaris = details: PR VU strain 6896, read-out: Minimum Inhibitory Concentration
Text: as §1, with “colonies. […]” for “colonies.”

bordetella brochiseptica = details: BO BR strain 4617
Text: as §1, with “colonies. […]” for “colonies.”

salmonella paratyphi = details: Salmonella enterica, read-out: Minimum Inhibitory Concentration
Text: as §1, with “colonies. […]” for “colonies.”

escherichia coli = system: escherichia coli
Text: as §1, with “colonies. […]” for “colonies.”

Staphylococcus aureus = details: Staphylococcus aureus
Text: as §1, with “colonies. […]” for “colonies.”

bacillus subtilis = details: Bacillus subtilis; BA SU strain 6633
Text: as §1, with “colonies. […]” for “colonies.”

neisseria catarrhalis = details: NE CA strain 8193, read-out: Minimum Inhibitory Concentration
Text: as §1, with “colonies. […]” for “colonies.”

klebsiella pneumoniae = details: KL PN strain 10031, read-out: Minimum Inhibitory Concentration
Text: as §1, with “colonies. […]” for “colonies.”

enterobacter aerogenes = details: Klebsiella aerogenes; EN AE strain 13048
Text: as §1, §2

Compound: CC(=O)OCC1=C(C(=O)O)N2C(=O)[C@@H](NC(=O)CSC(=C[N+](=O)[O-])SCC#N)[C@H]2SC1 [Example 6, 7-[2-(1-Cyanomethylthio-2-nitroethenylthio)acetamido]cephalosporanic acid]
- MIC (escherichia intermedia): 250 µg/mL (≈ 512 µM)
- MIC (pseudomones aeruginosa): 250 µg/mL (≈ 512 µM)
- MIC (herellea species): 125 µg/mL (≈ 256 µM)
- MIC (proteus vulgaris): 31.3 µg/mL (≈ 64.1 µM)
- MIC (bordetella brochiseptica): 125 µg/mL (≈ 256 µM)
- MIC (salmonella paratyphi): 7.81 µg/mL (≈ 16 µM)
- MIC (escherichia coli; ES CO strain 920): 125 µg/mL (≈ 256 µM)
- MIC (escherichia coli; ES CO strain 9637): 62.5 µg/mL (≈ 128 µM)
- MIC (Staphylococcus aureus; ST AU strain 53-180): 3.9 µg/mL (≈ 7.98 µM)
- MIC (Staphylococcus aureus; ST AU strain 6538P): 0.976 µg/mL (≈ 2 µM)
- MIC (Staphylococcus aureus; ST AU strain CHP): 3.9 µg/mL (≈ 7.98 µM)
- MIC (Staphylococcus aureus; ST AU strain Smith): 0.976 µg/mL (≈ 2 µM)
- MIC (bacillus subtilis): 0.122 µg/mL (≈ 0.25 µM)
- MIC (neisseria catarrhalis): 62.5 µg/mL (≈ 128 µM)
- MIC (klebsiella pneumoniae): 62.5 µg/mL (≈ 128 µM)

Compound: CC(=O)OCC1=C(C(=O)O)N2C(=O)[C@@H](NC(=O)CSC(=NC#N)SCC#N)[C@H]2SC1 [Example 7, 7-[2-[(cyanoimino) (cyanomethylthio)methylthio]acetamido]cephalosporanic acid]
- MIC (escherichia intermedia): 62.5 µg/mL (≈ 133 µM)
- MIC (enterobacter aerogenes): 7.81 µg/mL (≈ 16.6 µM)
- MIC (herellea species): 31.3 µg/mL (≈ 66.7 µM)
- MIC (proteus vulgaris): 31.3 µg/mL (≈ 66.7 µM)
- MIC (bordetella brochiseptica): 15.6 µg/mL (≈ 33.2 µM)
- MIC (escherichia coli; ES CO strain 9637): 31.3 µg/mL (≈ 66.7 µM)
- MIC (Staphylococcus aureus; ST AU strain 53-180): 0.976 µg/mL (≈ 2.08 µM)
- MIC (Staphylococcus aureus; ST AU strain 6538P): 0.488 µg/mL (≈ 1.04 µM)
- MIC (Staphylococcus aureus; ST AU strain CHP): 195 µg/mL (≈ 415 µM)
- MIC (Staphylococcus aureus; ST AU strain Smith): 0.488 µg/mL (≈ 1.04 µM)
- MIC (bacillus subtilis): 0.061 µg/mL (≈ 0.13 µM)
- MIC (neisseria catarrhalis): 31.3 µg/mL (≈ 66.7 µM)
